Results from patent publication US11352371B2, “Thienopyrimidine derivatives as ACC inhibitors and uses thereof” (Gilead Sciences, Inc., priority 2019, dated 2022).

How the values were obtained:
HepG2 cells = test: In vitro De Novo Lipogenesis (DNL) assay, 13C-acetate incorporation into palmitic acid; assay type: cell-based; conditions: Homo sapiens, 1 hour preincubation, 24 hours with 10 mM 13C-labeled acetate
Experimental: De Novo Lipogenesis (DNL) was measured in vitro in HepG2 cells by quantifying the incorporation of ^13C-labeled acetate into palmitic acid.
HepG2 cells were plated in growth medium (DMEM (Corning cat #15-018-CM) supplemented with 10% FBS (HyClone cat #SH30071-03), and 1× penicillin, streptomycin, glutamine (Corning cat #30-009-CI)) at 10,000 cells/well in a 384-well cell culture-treated plate (Greiner cat #781091). The cells were then incubated overnight at 37° C., 5% CO2. The next day, the cells were washed twice with sterile DPBS (Corning cat #21-031-CM) and the culture medium was changed to fresh growth medium. The compounds of interest were dosed to cells, followed by a 1 hour incubation at 37° C., 5% CO2. ^13C-labeled acetate (Sigma-Aldrich cat #279315-1G) was added to the culture medium at a concentration of 10 mM and the cells were incubated for 24 hours at 37° C., 5% CO2.
In order to analyze the lipid content of the HepG2 cells, the culture medium was removed and the cells were lysed by adding 30 μL of 0.1 M NaOH. After 5 minutes of incubation at room temperature, 15 μL of cell lysate was transferred to a 384-well deep-well plate (Sigma-Aldrich cat #BR701355-48EA) containing 15 μL of 7.3% KOH in ethanol and mixed. This plate was sealed and incubated at 70° C. for 4 hours to hydrolyze the lipids to free fatty acids. 100 μL of acetonitrile was then added and the plate was spun at 3,700 g for 20 minutes to separate the organic and aqueous phases. 50 μL from the top (organic) phase was transferred to a new 384-well plate (NUNC cat #264573) and the samples were analyzed by mass spectrometry using a RapidFire coupled to a QTOF mass spectrometer. The sum of the area under curve (AUC) for palmitate containing 3 to 7 ^13C was normalized with the AUC of oleate and plotted against compound concentration to determine the potency of ACC inhibitors. […]

[1] = Rat liver/plasma ratio determination; assay type: in vivo, male Sprague-Dawley (SD) rats; conditions: male SD rats, single oral dose 5 mg/kg or 10 mg/kg; for L/P Ratio (2 h): liver to plasma concentration 2 hours after dosing; for L/P Ratio (24 h): liver to plasma concentration 24 hours after dosing
Experimental: Liver to plasma (L/P) ratios of certain example compounds were determined in male Sprague-Dawley (SD) rats 2 hours and 24 hours after their administration.
The in vivo phases of the rat L/P ratio determinations for example compounds were conducted at Covance Laboratories (Madison, Wis.) or Charles River Laboratories (Worcester, Wash.). Animals were housed and handled in accordance with the Guide for the Care and Use of Laboratory Animals, Institute of Laboratory Animal Resources. The protocols were reviewed and approved by Institutional Animal Care and Use Committees (IACUC). Male Sprague-Dawley (SD) rats weighing approximately 300 g were fasted overnight prior to dosing and up to 4 hours after dosing. Each example compound was dosed at a single dose at 5 mg/kg or 10 mg/kg orally by gavage to male SD rats (n=3 rats/group). The aqueous formulation contained ethyl alcohol and polyethylene glycol 300. Approximately 100 μL plasma and 0.5 g liver samples were collected from each animal either 2 hours or 24 hours after dosing. The liver samples were homogenized by hard tissue homogenizer probes (Omni International, Kennesaw, Ga.) with 4× extraction buffer. For LC-MS/MS analysis, plasma and liver samples were prepared through protein precipitation extraction and analyzed on a Scitex API 5500 or 6500 LC-MS/MS instrument (Applied Biosystems, Foster City, Calif.). Analyte was eluted on a 1.7 μm 50×2.1 mm Acquity UPLC BEH C18 column (Waters, Milford, Mass.) using mobile phase containing 0.1% formic acid and a linear gradient from 55% to 95% acetonitrile at a flow rate of 800 μL/min. A liver/plasma ratio for each compound was calculated using the liver and plasma concentrations at the corresponding time point (2 hours or 24 hours). Noncompartmental pharmacokinetic parameters were calculated using Phoenix 32 (Pharsight Corporation, Mountain View, Calif.).
To assess the liver loading potential of the compounds, rat liver/plasma ratios (Rat L/P Ratio) values were determined for example compounds and are listed below in Table 1 for 2 hour and 24 hour timepoints (Rat L/P Ratio (2h/24h)).

EC50 (HepG2 cells) [nM]	L/P Ratio (2 h) [1]	L/P Ratio (24 h) [1]	Structure (SMILES)
4.5	442	1106	Cc1c(-c2ncco2)sc2c1c(=O)n(C(C)(C)C(=O)NS(=O)(=O)C1(C)CC1)c(=O)n2C[C@H](O[C@@H]1C[C@H]2CC[C@@H](C1)O2)c1cc(F)ccc1OC(F)F [Example 6, 2-(1-((R)-2-(((1R,3s,5S)-8-oxabicyclo[3.2.1]octan-3-yl)oxy)-2-(2-(difluoromethoxy)-5-fluorophenyl)ethyl)-5-methyl-6-(oxazol-2-yl)-2,4-dioxo-1,4-dihydrothieno[2,3-d]pyrimidin-3(2H)-yl)-2-methyl-N-((1-methylcyclopropyl)sulfonyl)propanamide]
0.3	2515	2914	COc1ccc(F)cc1[C@H](Cn1c(=O)n(C(C)(C)C(=O)NS(=O)(=O)C2(C)CC2)c(=O)c2c(C)c(-n3nccn3)sc21)O[C@@H]1C[C@H]2CC[C@@H](C1)O2 [Example 20, 2-(1-((R)-2-(((1R,3s,5S)-8-oxabicyclo[3.2.1]octan-3-yl)oxy)-2-(5-fluoro-2-methoxyphenyl)ethyl)-5-methyl-2,4-dioxo-6-(2H-1,2,3-triazol-2-yl)-1,4-dihydrothieno[2,3-d]pyrimidin-3(2H)-yl)-2-methyl-N-((1-methylcyclopropyl)sulfonyl)propanamide]
1.7	145	136	COc1ccccc1[C@H](Cn1c(=O)n(C2(C(=O)NS(=O)(=O)C3(C)CC3)CC2)c(=O)c2c(C)c(-c3ncco3)sc21)O[C@@H]1C[C@H]2CC[C@@H](C1)O2 [Example 12, 1-(1-((R)-2-(((1R,3s,5S)-8-oxabicyclo[3.2.1]octan-3-yl)oxy)-2-(2-methoxyphenyl)ethyl)-5-methyl-6-(oxazol-2-yl)-2,4-dioxo-1,4-dihydrothieno[2,3-d]pyrimidin-3(2H)-yl)-N-((1-methylcyclopropyl)sulfonyl)cyclopropane-1-carboxamide]
